Source: US20220313656A1, “NEW CLASS OF ANTIBIOTICS HAVING LOW MIC-VALUES TOWARDS DIFFERENT STRAINS OF BACTERIA” (priority 2019, published 2022)

Experiments:
[1] = test system: S. aureus CC398; experiment: MIC, serial dilution method (CLSI); type: cell-based, Staphylococcus aureus; details: Staphylococcus aureus, MRSA, 24 h; read-out: MIC
Experimental: (§1) These inoculums were each in diluted 1:100 in Müller Hinton (MH) broth (Sigma, Copenhagen, Denmark). From the diluted inoculums 100 μl was transferred to each well in a 96-well plate and mixed with the compound to be MIC determined. The plate was incubated for 24 hours at 37° C. (without shaking). The MIC value was determined as the lowest concentration in which no bacterial growth could be visually detected. All MIC determinations were done in duplicates. […] Since all derivatives are new, no control strains (with reference MIC values) were available.

[2] = test system: S. aureus USA300; experiment: MIC, serial dilution method (CLSI); type: cell-based, Staphylococcus aureus; details: Staphylococcus aureus, USA300, 24 h; read-out: MIC
Experimental: as §1

[3] = test system: E. faecalis; experiment: MIC, serial dilution method (CLSI); type: cell-based, Enterococcus faecalis; details: Enterococcus faecalis, 24 h; read-out: MIC
Experimental: as §1

[4] = test system: E. coli APEC O2; experiment: MIC, serial dilution method (CLSI); type: cell-based, Escherichia coli; details: Escherichia coli, APECO2, 24 h; read-out: MIC
Experimental: as §1

[5] = test system: Staphylococus pseudintermedius; experiment: MIC, serial dilution method (CLSI); type: cell-based, Staphylococcus pseudintermedius; details: Staphylococcus pseudintermedius, 24 h; read-out: MIC
Experimental: as §1

[6] = test system: E. faecium; experiment: MIC, serial dilution method (CLSI); type: cell-based, Enterococcus faecium; details: Enterococcus faecium, 24 h; read-out: MIC
Experimental: as §1

[7] = test system: Bacillus cereus; experiment: MIC, serial dilution method (CLSI); type: cell-based; details: 24 h, read-out: MIC
Experimental: as §1

[8] = test system: Escherichia coli E24; experiment: MIC, serial dilution method (CLSI); also: values in mg/L; type: cell-based; details: E. coli E24, ESBL; duplicates a/b
Experimental: as §1

[9] = test system: Escherichia coli E38; experiment: MIC, serial dilution method (CLSI); also: values in mg/L; type: cell-based; details: E. coli E38, ESBL; duplicates a/b
Experimental: as §1

[10] = test system: Escherichia coli E4; experiment: MIC, serial dilution method (CLSI); also: values in mg/L; type: cell-based; details: E. coli E4, ESBL; duplicates a/b
Experimental: as §1

[11] = test system: Escherichia coli E5; experiment: MIC, serial dilution method (CLSI); also: values in mg/L; type: cell-based; details: E. coli E5, ESBL; duplicates a/b
Experimental: as §1

[12] = test system: Escherichia coli E6; experiment: MIC, serial dilution method (CLSI); also: values in mg/L; type: cell-based; details: E. coli E6, ESBL; duplicates a/b
Experimental: as §1

[13] = test system: Escherichia coli ESBL10; experiment: MIC, serial dilution method (CLSI); also: values in mg/L; type: cell-based; details: E. coli ESBL10, Tetracycline resistant; duplicates a/b
Experimental: as §1

[14] = test system: Escherichia coli ESBL19; experiment: MIC, serial dilution method (CLSI); also: values in mg/L; type: cell-based; details: E. coli ESBL19, Tetracycline resistant; duplicates a/b
Experimental: as §1

[15] = test system: Escherichia coli ESBL1; experiment: MIC, serial dilution method (CLSI); also: values in mg/L; type: cell-based; details: E. coli ESBL1, Tetracycline resistant; duplicates a/b
Experimental: as §1

[16] = test system: Escherichia coli ESBL28; experiment: MIC, serial dilution method (CLSI); also: values in mg/L; type: cell-based; details: E. coli ESBL28, Tetracycline resistant; duplicates a/b
Experimental: as §1

[17] = test system: Escherichia coli ESBL37; experiment: MIC, serial dilution method (CLSI); also: values in mg/L; type: cell-based; details: E. coli ESBL37, Tetracycline resistant; duplicates a/b
Experimental: as §1

[18] = test system: Escherichia coli ESBL46; experiment: MIC, serial dilution method (CLSI); also: values in mg/L; type: cell-based; details: E. coli ESBL46, Tetracycline resistant; duplicates a/b
Experimental: as §1

[19] = test system: Listeria monocytogenes; experiment: MIC, serial dilution method (CLSI); type: cell-based; details: 24 h, read-out: MIC
Experimental: as §1

[20] = test system: Salmonella enteritidis; experiment: MIC, serial dilution method (CLSI); type: cell-based; details: Salmonella enterica, ENTERITIDIS, 24 h; read-out: MIC
Experimental: as §1

[21] = test system: Streptococcus equi; experiment: MIC, serial dilution method (CLSI); type: cell-based; details: 24 h, read-out: MIC
Experimental: as §1

[22] = test system: Cutibacterium acnes; experiment: MIC and MBC determination; type: cell-based; details: Multiresistant clinical isolate
Experimental: (§2) MBC-value defines the antibiotic activities by the lowest concentration of the compound needed to kill at least 99.9% of the bacteria, also known as minimum bactericidal concentration (MBC) value.
(§3) The MIC for each compound for each bacteria strain was determined by the serial dilution method following the CLSI guidelines (CLSI Clinical and Laboratory Standards Institute: Performance Standards for Antimicrobial Susceptibility Testing: […] M100-S25. Wayne, Pa., USA; 2015.) All compounds were diluted in autoclaved H2O and stored at 4° C. […] Bacterial inoculums were prepared by inoculating 9 ml of H2O with bacterial colonies from agar plate (Oxoid, Roskilde Denmark) supplemented with bovine blood to a final yield a final density of 10^8 colony forming unit (CFU)/mL using a Sensititre™ Nephelometer (Thermo Scientific, Roskilde, Denmark). These inoculums were each in diluted 1:100 in Müller Hinton (MH) broth (Sigma, Copenhagen, Denmark). From the diluted inoculums 100 μl was transferred to each well in a 96-well plate and mixed with the compound to be MIC determined. The plate was incubated for 24 hours at 37° C. (without shaking). The MIC value was determined as the lowest concentration in which no bacterial growth could be visually detected. All MIC determinations were done in duplicates. […] Since all derivatives are new, no control strains (with reference MIC values) were available.

[23] = test system: Staphylococcus epidermidis; experiment: MIC and MBC determination; type: cell-based; details: Multiresistant clinical isolate
Experimental: as §2, §3

[24] = test system: IPEC-J2 MDR1 cells; experiment: Apical to basolateral transport across IPEC-J2 MDR1 cell monolayers; type: in vitro ADME
Experimental: To assess the permeability of the compounds, the apical to basolateral flux/permeability of different experimental compounds across monolayers of IPEC-J2 MDR1 cells seeded and cultured on Transwell supports was investigated.
The compounds were dissolved in ultra pure water (MilliQ) to a concentration of 1 mM and further diluted in HBSS supplemented with 0.05% BSA and 10 mM HEPES, pH 7.4 to a final concentration of 10 μM.
For transport experiments, IPEC-J2 cells were seeded onto to permeable supports (T12, Corning cci-3401) and cultured for 15-17 days. Culturemedium was changed every other day in both the apical and basolateral chamber. On the day of transport, the cells were equilibrated to ambient temperatures and the transepithelial electrical resistance (TEER) was measured across the cell monolayers. Subsequently, the cell layers were washed twice with HBSS and the TEER was measured again. The transport experiment was started by replacing the HBSS in the apical chamber with HBSS solutions of the four experimental compounds. Over a period of two hours samples of 100 μL where taken from the basolateral chamber at t=15, 30, 45, 60, 90 and 120 minutes. All samples were stored at −20° C. until analysis by means of HPLC-MS. All four compounds were tested in triplicate. After the transport study was stopped, the cell layers were washed twice with HBSS and the TEER was measured.

Row | Compound | MIC [1] [µg/mL] | MIC [2] [µg/mL] | MIC [3] [µg/mL] | MIC [4] [µg/mL] | MIC [5] [µg/mL] | MIC [6] [µg/mL] | MIC [7] [µg/mL] | MIC [19] [µg/mL] | MIC [20] [µg/mL] | MIC [21] [µg/mL] | permeability across IPEC-J2 MDR1 cell monolayers [24] | also measured
1 | CN(C)CCCN1c2ccccc2Sc2ccc(Cl)cc21.Cl [Compound S1, 3-(2-chloro-10H-phenothiazin-10-yl)-N,N-dimethylpropan-1-amine hydrochloride, reference compound] | 32 | 64 | 64 | 64 | 32 | 32 | 64 | 32 | 64 | 16 |  | MIC [8]: 64/32; MIC [9]: 64/32; MIC [10]: 64/64; MIC [11]: 32/32; MIC [12]: 32/32; MIC [13]: 64/64; MIC [14]: 32/32; MIC [15]: 32/64; MIC [16]: 32/32; MIC [17]: 32/32; MIC [18]: 32/32
2 | CCCCCCCCCCCC[N+](C)(C)C(C)CN1c2ccccc2Sc2ccccc21.[Br-] (centres unmarked) [Compound S18, N-(1-(10H-phenothiazin-10-yl)propan-2-yl)-N,N-dimethyldodecan-1-aminium bromide] | 0.25 | 0.5 | 0.5 | 64 | 0.25 | 0.25 | 0.25 | 0.25 | 64 | 1 |  | MBC [22]: 0.5 µg/mL; MIC [22]: 0.5 µg/mL; MBC [23]: 0.25 µg/mL; MIC [23]: 0.25 µg/mL
3 | CC[N+]1(C)CCCCC1CCN1c2ccccc2Sc2ccc(SC)cc21.[Br-] (centres unmarked) [Compound S25, 1-ethyl-1-methyl-2-(2-(2-(methylthio)-10H-phenothiazin-10-yl)ethyl)piperidin-1-ium bromide] | 4 | 2 | 8 | 256 | 2 | 8 | 2 | 2 | 256 | 2 | low | 

Now from value to compound, other results behind:

Row | MIC [1] [µg/mL] | MIC [2] [µg/mL] | MIC [3] [µg/mL] | MIC [4] [µg/mL] | MIC [5] [µg/mL] | MIC [6] [µg/mL] | MIC [7] [µg/mL] | MIC [19] [µg/mL] | MIC [20] [µg/mL] | MIC [21] [µg/mL] | permeability across IPEC-J2 MDR1 cell monolayers [24] | Compound | also measured
4 | 2 | 2 | 4 | 128 | 2 | 4 | 4 | 2 | 128 | 2 | low | CSc1ccc2c(c1)N(CCC1CCCC[N+]1(C)CCC(C)C)c1ccccc1S2.[Br-] (centres unmarked) [Compound S27, 1-isopentyl-1-methyl-2-(2-(2-(methylthio)-10H-phenothiazin-10-yl)ethyl)piperidin-1-ium bromide] | 
5 | 2 | 2 | 4 | 64 | 4 | 2 | 2 | 2 | 64 | 2 | low | CCCCC[N+]1(C)CCCCC1CCN1c2ccccc2Sc2ccc(SC)cc21.[Br-] (centres unmarked) [Compound S28, 1-methyl-2-(2-(2-(methylthio)-10H-phenothiazin-10-yl)ethyl)-1-pentylpiperidin-1-ium bromide] | 
